Assay results published in the supplement of paper PMC11061612.

What was measured:
Assay in all cases: combination Emax (second highest fraction inhibited in the dose matrix, 72 h); higher = more inhibition; extreme values may be limits of the assay
[1] = test system: TE-9 (Esophageal Squamous Cell Carcinoma)
Method in brief: (§1)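 Cell lines in DMEM/F12 or RPMI with 10% FBS were plated in 1536-well plates, held 24 hours at 37°C, 5% CO2, then given two-drug dose matrices for 72 hours (DMSO typically 0.2%). Viability was read by CellTiter-Glo 2.0 luminescence and scaled as inhibition from 0 (vehicle wells) to 1 (blank wells). Combination Emax is the second-highest inhibition in the matrix; Bliss excess is observed combination effect minus expected EA + EB − EA·EB, EA and EB being single-agent effects.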

[2] = test system: KYSE-520 (Esophageal Squamous Cell Carcinoma)
Method in brief: as §1

[3] = test system: HCC1806 (Breast Carcinoma)
Method in brief: as §1

[4] = test system: KELLY (Neuroblastoma)
Method in brief: as §1

[5] = test system: OVCA420 (Ovarian Carcinoma)
Method in brief: as §1

[6] = test system: NCI-H82 (Small Cell Lung Carcinoma)
Method in brief: as §1

[7] = test system: LNCaP-Clone-FGC (Prostate Carcinoma)
Method in brief: as §1

[8] = test system: LB831-BLC (Bladder Carcinoma)
Method in brief: as §1

[9] = test system: CaR-1 (Colorectal Carcinoma)
Method in brief: as §1

[10] = test system: CAL-148 (Breast Carcinoma)
Method in brief: as §1

[11] = test system: DoTc2-4510 (Cervical Carcinoma)
Method in brief: as §1

| SMILES | combination Emax [1] | combination Emax [2] | combination Emax [3] | combination Emax [4] | combination Emax [5] | combination Emax [6] | combination Emax [7] | combination Emax [8] | combination Emax [9] | combination Emax [10] | combination Emax [11] |
| --- | --- | --- | --- | --- | --- | --- | --- | --- | --- | --- | --- |
| CN(C)CCCOc1ccc(-c2ccc3ncc4c(c3c2)n(C2CCOCC2)c(=O)n4C)cn1 [AZD0156] + C=CCn1c(=O)c2cnc(Nc3ccc(N4CCN(C)CC4)cc3)nc2n1-c1cccc(C(C)(C)O)n1 [AZD1775] (first compound max 1 µM, partner max 1 µM) | 0.231 | 0.32 | 0.901 | 1 | 0.141 | 0.901 | 0.738 | 0.388 | 0.128 | 0.966 | 0.473 |
| CN(C)CCCOc1ccc(-c2ccc3ncc4c(c3c2)n(C2CCOCC2)c(=O)n4C)cn1 [AZD0156] + CCN(CCO)CCCOc1ccc2c(Nc3cc(CC(=O)Nc4cccc(F)c4)[nH]n3)ncnc2c1 [AZD2811] (first compound max 1 µM, 7x7, partner max 1 µM) | 0.0784 | 0.224 | 0.124 | 0.684 | 0.0163 | 0.45 | 0.556 | 0.0797 | 0.145 | 0.935 | 0.186 |
| CN(C)CCCOc1ccc(-c2ccc3ncc4c(c3c2)n(C2CCOCC2)c(=O)n4C)cn1 [AZD0156] + C[C@@H]1COCCN1C2=NC(=NC(=C2)C3(CC3)[S@](=N)(=O)C)C4=C5C=CNC5=NC=C4 [AZD6738] (first compound max 1 µM, 7x7, partner max 10 µM) | 0.354 | 0.603 | 0.937 | 0.987 | 0.545 | 0.948 | 0.737 | 0.23 | 0.435 | 0.791 | 0.811 |
| C=CCn1c(=O)c2cnc(Nc3ccc(N4CCN(C)CC4)cc3)nc2n1-c1cccc(C(C)(C)O)n1 [AZD1775] + C[C@@H]1COCCN1C2=NC(=NC(=C2)C3(CC3)[S@](=N)(=O)C)C4=C5C=CNC5=NC=C4 [AZD6738] (first compound max 1 µM, partner max 10 µM) | 0.67 | 0.661 | 0.961 | 1 | 0.518 | 0.979 | 0.787 | 0.72 | 0.525 | 1 | 0.751 |
| C=CCn1c(=O)c2cnc(Nc3ccc(N4CCN(C)CC4)cc3)nc2n1-c1cccc(C(C)(C)O)n1 [AZD1775] + O=C(c1cc(Cc2n[nH]c(=O)c3ccccc23)ccc1F)N1CCN(C(=O)C2CC2)CC1 [Olaparib] (first compound max 1 µM, partner max 10 µM) | 0.307 | 0.399 | 0.836 | 0.988 | 0.881 | 0.851 | 0.77 | 0.607 | 0.257 | 0.978 | 0.458 |
| CCN(CCO)CCCOc1ccc2c(Nc3cc(CC(=O)Nc4cccc(F)c4)[nH]n3)ncnc2c1 [AZD2811] + C=CCn1c(=O)c2cnc(Nc3ccc(N4CCN(C)CC4)cc3)nc2n1-c1cccc(C(C)(C)O)n1 [AZD1775] (first compound max 1 µM, partner max 1 µM) | 0.207 | 0.306 | 0.867 | 1 | 0.179 | 0.901 | 0.699 | 0.456 | 0.223 | 0.994 | 0.534 |
| CCN(CCO)CCCOc1ccc2c(Nc3cc(CC(=O)Nc4cccc(F)c4)[nH]n3)ncnc2c1 [AZD2811] + C[C@@H]1COCCN1C2=NC(=NC(=C2)C3(CC3)[S@](=N)(=O)C)C4=C5C=CNC5=NC=C4 [AZD6738] (first compound max 1 µM, 7x7, partner max 10 µM) | 0.278 | 0.558 | 0.931 | 0.992 | 0.443 | 0.922 | 0.736 | 0.238 | 0.469 | 1 | 0.675 |
| CCN(CCO)CCCOc1ccc2c(Nc3cc(CC(=O)Nc4cccc(F)c4)[nH]n3)ncnc2c1 [AZD2811] + O=C(c1cc(Cc2n[nH]c(=O)c3ccccc23)ccc1F)N1CCN(C(=O)C2CC2)CC1 [Olaparib] (first compound max 1 µM, 7x7, partner max 10 µM) | 0.155 | 0.21 | 0.265 | 0.788 | 0.137 | 0.615 | 0.495 | 0.268 | 0.19 | 0.966 | 0.297 |
| C[C@@H]1COCCN1c1cc(C2([S@](C)(=N)=O)CC2)nc(-c2ccnc3[nH]ccc23)n1 [AZD6738] + O=C(c1cc(Cc2n[nH]c(=O)c3ccccc23)ccc1F)N1CCN(C(=O)C2CC2)CC1 [Olaparib] (first compound max 10 µM, 7x7, partner max 10 µM) | 0.436 |  | 0.89 | 0.897 | 0.364 | 0.921 | 0.73 | 0.373 | 0.441 | 0.935 | 0.7 |
| Cc1cc2ncnn2cc1Nc1ncc2c(n1)n(C1CCOCC1)c(=O)n2C [AZD7648] + C=CCn1c(=O)c2cnc(Nc3ccc(N4CCN(C)CC4)cc3)nc2n1-c1cccc(C(C)(C)O)n1 [AZD1775] (first compound max 10 µM, partner max 1 µM) | 0.275 | 0.4 | 0.894 | 0.993 | 0.418 | 0.853 | 0.775 | 0.455 | 0.551 | 0.928 | 0.531 |
| Cc1cc2ncnn2cc1Nc1ncc2c(n1)n(C1CCOCC1)c(=O)n2C [AZD7648] + CCN(CCO)CCCOc1ccc2c(Nc3cc(CC(=O)Nc4cccc(F)c4)[nH]n3)ncnc2c1 [AZD2811] (first compound max 10 µM, 7x7, partner max 1 µM) | 0.234 | 0.337 | 0.281 | 0.692 | 0.232 | 0.595 | 0.535 | 0.258 | 0.472 | 0.911 | 0.301 |
| Cc1cc2ncnn2cc1Nc1ncc2c(n1)n(C1CCOCC1)c(=O)n2C [AZD7648] + CN(C)CCCOc1ccc(-c2ccc3ncc4c(c3c2)n(C2CCOCC2)c(=O)n4C)cn1 [AZD0156] (first compound max 10 µM, 7x7, partner max 1 µM) | 0.183 | 0.305 | 0.271 | 0.878 | 0.262 | 0.293 | 0.546 | 0.243 | 0.266 | 0.424 | 0.26 |
| Cc1cc2ncnn2cc1Nc1ncc2c(n1)n(C1CCOCC1)c(=O)n2C [AZD7648] + C[C@@H]1COCCN1C2=NC(=NC(=C2)C3(CC3)[S@](=N)(=O)C)C4=C5C=CNC5=NC=C4 [AZD6738] (first compound max 10 µM, 7x7, partner max 10 µM) | 0.286 | 0.538 | 0.928 | 0.955 | 0.509 | 0.899 | 0.703 | 0.3 | 0.649 | 0.828 | 0.746 |
| Cc1cc2ncnn2cc1Nc1ncc2c(n1)n(C1CCOCC1)c(=O)n2C [AZD7648] + O=C(c1cc(Cc2n[nH]c(=O)c3ccccc23)ccc1F)N1CCN(C(=O)C2CC2)CC1 [Olaparib] (first compound max 10 µM, 7x7, partner max 10 µM) | 0.119 | 0.234 | 0.142 | 0.362 | 0.0465 | 0.333 | 0.533 | 0.253 | 0.111 | 0.255 | 0.277 |
| COc1cccc2c1C(=O)c1c(O)c3c(c(O)c1C2=O)C[C@@](O)(C(=O)CO)C[C@@H]3O[C@H]1C[C@H](N)[C@H](O)[C@H](C)O1 [Doxorubicin] + Cc1cc2ncnn2cc1Nc1ncc2c(n1)n(C1CCOCC1)c(=O)n2C [AZD7648] (first compound max 1 µM, 7x7, partner max 10 µM) | 0.148 | 0.295 | 0.919 | 0.789 | 0.224 | 0.949 | 0.819 | 0.871 | 0.807 | 1 | 0.844 |
| CS(=O)(=O)CCNCc1ccc(-c2ccc3ncnc(Nc4ccc(OCc5cccc(F)c5)c(Cl)c4)c3c2)o1 [Lapatinib] + Cn1cnc2c(F)c(Nc3ccc(Br)cc3Cl)c(C(=O)NOCCO)cc21 [Selumetinib] (first compound max 10 µM, 7x7, partner max 10 µM) | 0.149 |  |  | 0.936 |  | 0.416 |  | 0.379 | 0.426 | 0.373 | 0.597 |
| CS(=O)(=O)CCNCc1ccc(-c2ccc3ncnc(Nc4ccc(OCc5cccc(F)c5)c(Cl)c4)c3c2)o1 [Lapatinib] + NC1(c2ccc(-c3nc4ccn5c(=O)[nH]nc5c4cc3-c3ccccc3)cc2)CCC1 [MK-2206] (first compound max 10 µM, 7x7, partner max 10 µM) | 0.306 |  | 0.954 | 0.959 | 0.884 | 0.932 |  | 0.39 | 0.779 | 0.996 | 0.888 |
| COc1cccc(OCCCN)c1-c1cc(Nc2cnc(C#N)cn2)n[nH]1 [Prexasertib] + C=CCn1c(=O)c2cnc(Nc3ccc(N4CCN(C)CC4)cc3)nc2n1-c1cccc(C(C)(C)O)n1 [AZD1775] (first compound max 1 µM, partner max 1 µM) | 0.86 | 0.735 | 0.983 | 1 | 0.726 | 0.996 | 0.846 | 0.836 | 0.797 | 1 | 0.906 |
| COc1cccc(OCCCN)c1-c1cc(Nc2cnc(C#N)cn2)n[nH]1 [Prexasertib] + CN(C)CCCOc1ccc(-c2ccc3ncc4c(c3c2)n(C2CCOCC2)c(=O)n4C)cn1 [AZD0156] (first compound max 1 µM, 7x7, partner max 1 µM) | 0.596 | 0.725 | 0.967 | 1 | 0.676 | 1 | 0.827 | 0.413 | 0.627 | 0.642 | 0.89 |
| CCc1c2c(nc3ccc(O)cc13)-c1cc3c(c(=O)n1C2)COC(=O)[C@]3(O)CC [SN-38] + O=C(c1cc(Cc2n[nH]c(=O)c3ccccc23)ccc1F)N1CCN(C(=O)C2CC2)CC1 [Olaparib] (first compound max 0.3 µM, 7x7, partner max 10 µM) | 0.458 |  | 0.974 | 0.884 |  | 0.787 |  | 0.85 | 0.912 | 0.96 | 0.988 |
